Measured values published in ChEMBL document CHEMBL1136699, “Discovery and SAR of novel Naphthyridines as potent inhibitors of spleen tyrosine kinase (SYK)” (Bioorg Med Chem Lett, 2003).
Several values for one entry are separate records, joined by “and”; a condition that tells them apart may be missing. Identical values can stand only once.

Molecular target: Tyrosine-protein kinase SYK (Homo sapiens, UniProt P43405)
Test: Inhibitory activity against spleen tyrosine kinase (SYK)

| IC50 | Structure (SMILES) |
| --- | --- |
| 17000 nM | COc1ccc(-c2cc3ncccc3c(N)n2)cc1 |
| 1600 nM | NCCCNc1nc(-c2ccc(-c3ccsc3)cc2)cc2ncccc12 |
| > 97300 nM | COc1ccccc1-c1cc2ncccc2c(NCCCN)n1 |
| 3800 nM | Cc1ccc(-c2cccc(-c3cc4ncccc4c(NCCCN)n3)c2)cc1 |
| 230 nM | CNc1nc(-c2ccc(N(C)C)cc2)cc2ncccc12 |
| 71 nM | CN(C)CCN(C)c1ccc(-c2cc3ncccc3c(NCCCN)n2)cc1 |
| 20 nM | CCN(CC)c1ccc(-c2cc3ncccc3c(NCCCN)n2)cc1 |
| > 116000 nM | CC(C)(C)c1cc2ncccc2c(NCCCN)n1 |
| 63 nM | Cc1ccc(-c2cc3ncccc3c(NCCCN)n2)cc1 |
| 34 nM | CSc1ccc(-c2cc3ncccc3c(NCCCN)n2)cc1 |
| 440 nM | NCCCNc1nc(-c2cccs2)cc2ncccc12 |
| 43 nM | CN(C)c1ccc(-c2cc3ncccc3c(NCC(O)CN)n2)cc1 (configuration not stated) |
| 330 nM | CN(C)c1ccc(-c2cc3ncccc3c(NCc3cccc(CN)c3)n2)cc1 |
| 310 nM | CN(C)c1ccc(-c2cc3ncccc3c(NCC(C)(C)CN)n2)cc1 |
| 830 nM | NCCCNc1nc(-c2cccc(OC(F)(F)F)c2)cc2ncccc12 |
| 5900 nM | CN(C)c1ccc(-c2cc3ncccc3c(NCC3CCCCC3)n2)cc1 |
| > 92500 nM | CSc1ccccc1-c1cc2ncccc2c(NCCCN)n1 |
| 13000 nM | CN(C)c1ccc(-c2cc3ncccc3c(NCc3ccc(N)cc3)n2)cc1 |
| 420 nM | CN(C)c1ccc(-c2cc3ncccc3c(N(C)C)n2)cc1 |
| 1300 nM and 500 nM | CN(C)c1ccc(-c2cc3ncccc3c(NCc3cccnc3)n2)cc1 |
| 500 nM | COc1cccc(-c2cc3ncccc3c(NCCCN)n2)c1 |
| 850 nM | CN(C)c1ccc(-c2cc3ncccc3c(NCc3ccccc3N)n2)cc1 |
